As a reminder, the ED50 is the dose that gives a 50% effect, or the effect in half of the subjects. High values mean weaker potency, low ones greater potency. The inhibition is the relative decrease from the control value, in per cent.

ED50, inhibition and Activity data for one compound are collected here from ChEMBL document CHEMBL1149398, “Pyrrolizidine esters and amides as 5-HT4 receptor agonists and antagonists” (J Med Chem, 2006).

Series [1] relates to Canis familiaris. Briefly: Effect on solid gastric emptying in iv dosed dog. The class given is functional. The settings on record: Canis lupus familiaris, Stomach.
The test system of series [2] is Canis familiaris. Briefly: Contractile response of the antrum in iv dosed fasted dog. The settings on record: Canis lupus familiaris. The class given is functional.
Series [3] has as its target Serotonin 3 receptor (5HT3) (Mus musculus) (UniProt Q9JHJ5+P23979). Briefly: Antagonism at 5HT3 receptor in mice by von Bezold-Jarisch reflex inhibition at 10 mg/kg, ip. The class given is functional, organism-based. The arrangement: dose 10 mg/kg.
The subject of another series is Salmonella typhi. Briefly: Mutagenic activity in a GLP study using Salmonella Typhimurium TA97 in presence of S9 fraction at 7.2-3600 ug/plate. The series is classed as toxicity, organism-based. The conditions noted are these: salmonella enterica subsp. enterica […].

Chain of Serotonin 3 receptor (5HT3) (Mus musculus) (P23979 whole entry, looked up): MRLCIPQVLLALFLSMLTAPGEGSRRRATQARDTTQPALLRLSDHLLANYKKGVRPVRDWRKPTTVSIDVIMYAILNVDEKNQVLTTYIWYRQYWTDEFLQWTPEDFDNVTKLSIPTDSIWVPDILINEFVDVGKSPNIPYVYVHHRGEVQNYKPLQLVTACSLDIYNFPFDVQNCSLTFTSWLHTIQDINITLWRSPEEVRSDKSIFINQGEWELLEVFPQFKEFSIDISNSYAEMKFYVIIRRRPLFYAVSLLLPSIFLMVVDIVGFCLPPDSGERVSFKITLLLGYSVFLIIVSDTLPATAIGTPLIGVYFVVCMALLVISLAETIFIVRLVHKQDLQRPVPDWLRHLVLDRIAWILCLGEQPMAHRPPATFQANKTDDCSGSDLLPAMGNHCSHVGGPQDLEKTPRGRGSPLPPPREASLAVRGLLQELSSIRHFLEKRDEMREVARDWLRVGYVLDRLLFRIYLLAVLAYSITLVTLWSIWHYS
Chain of Serotonin 3 receptor (5HT3) (Mus musculus) (Q9JHJ5 whole entry, looked up): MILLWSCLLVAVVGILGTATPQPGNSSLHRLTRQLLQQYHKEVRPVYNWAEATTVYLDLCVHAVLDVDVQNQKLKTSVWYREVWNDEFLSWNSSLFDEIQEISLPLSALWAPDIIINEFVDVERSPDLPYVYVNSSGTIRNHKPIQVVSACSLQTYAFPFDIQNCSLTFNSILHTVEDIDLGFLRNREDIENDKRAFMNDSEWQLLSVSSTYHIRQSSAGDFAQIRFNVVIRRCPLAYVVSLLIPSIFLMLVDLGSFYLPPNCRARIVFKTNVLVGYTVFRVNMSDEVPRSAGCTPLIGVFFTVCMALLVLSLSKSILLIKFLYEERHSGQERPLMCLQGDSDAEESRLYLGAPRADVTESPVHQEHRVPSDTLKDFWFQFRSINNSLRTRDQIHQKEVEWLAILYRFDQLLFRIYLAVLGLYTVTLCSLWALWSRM

Consider `COc1cc(N)c(Cl)cc1C(=O)NC[C@@H]1CCN2CCC[C@@H]12`, for which the ED50 was found to be 1 µg/kg in the series on Canis familiaris [1] and 10 µg/kg in the series with Canis familiaris [2]. In series [3], this compound came in with an inhibition of 87%. Further, the result with Salmonella typhi was Active.
